According to US11413297B2, “Therapies for treating and preventing chronic rhinosinusitis” (Avanti Polar Lipids, LLC, priority 2017, dated 2022):
“Also recorded” adds a separate entry of the source.

Tests used:
Format in all cases: cell-based
[1] = test system: S. aureus (NCTC 8325) biofilm formation; assay: Prevention of S. aureus (NCTC 8325) biofilm formation, crystal violet at 540 nm (Example 12); conditions: 24 hours
Protocol: We also performed in vitro tests of the capacity of phospholipids together with antibiotics to prevent formation of biofilms. Freshly grown S. aureus (NCTC 8325) were quantitated and placed in 96-well plates together with phospholipids plus gentamicin and tobramycin (antibiotics) or antibiotics alone. After 24 hours at 37 degrees C., the fluids were removed and the wells stained with crystal violet, and then the density of crystal violet in the wells was quantitated by absorption of light at 540 nm.

S. aureus = assay: Inhibition of growth of planktonic S. aureus, OD600 (Example 8); conditions: in combination with gentamicin, compared to gentamicin alone; 6 h; phospholipid 256, 512, 1024 μg/ml
Protocol: We performed in vitro studies of the capacity of phospholipids together with antibiotics to inhibit the growth of planktonic bacteria. The tests were conducted as follows. Freshly grown S. aureus was quantitated and placed in 96-well plates together with gentamicin alone, phospholipids plus gentamicin, or control solutions. Two different phospholipids (MAPCHO-10 and MAPCHO-12) were tested at three different phospholipid test concentrations (256 μg/ml, 512 μg/ml, and 1024 μg/ml). After 24 hours at 37 degrees C., media was removed and fresh medium was added and the 96-well plates were incubated at 37 degrees C. for 6 hours. Bacterial density was then analyzed and measured at OD600.

[2] = test system: P. aeruginosa biofilm formation; assay: Prevention of P. aeruginosa biofilm formation, crystal violet (Example 5); conditions: in combination with gentamicin; 24 h; phospholipid 1024 or 2048 μg/ml; FIGS. 8B, 8C
Protocol: We performed in vitro tests of the capacity of phospholipids together with antibiotics to prevent formation of biofilms. Freshly grown P. aeruginosa was quantitated and placed in 96-well plates together with gentamicin alone, phospholipids plus gentamicin, or control solutions. Four different phospholipids (MAPCHO-10, MAPCHO-12, MAPCHO-14, and MAPCHO-16) were tested at two different phospholipid test concentrations (1024 μg/ml and 2048 μg/ml). After 24 hours at 37 degrees C., the fluids were removed and the wells stained with crystal violet, and then the density of crystal violet in the wells was quantitated.

[3] = test system: S. aureus (ATCC BAA-1720) biofilm formation; assay: Prevention of S. aureus biofilm formation, crystal violet at 540 nm (Example 2); conditions: 24 hours
Protocol: We also performed in vitro tests of the capacity of phospholipids together with antibiotics to prevent formation of biofilms. Freshly grown S. aureus and P. aeruginosa were quantitated and placed in 96-well plates together with phospholipids plus gentamicin and tobramycin (antibiotics), phospholipids alone, antibiotics alone or controls solution. After 24 hours at 37 degrees C., the fluids were removed and the wells stained with crystal violet, and then the density of crystal violet in the wells was quantitated by absorption of light at 540 nm.

[4] = test system: preformed S. aureus (ATCC BAA-1720) biofilms; assay: Disruption of preformed S. aureus biofilm, crystal violet staining (Example 1)
Protocol: We performed in vitro studies of the capacity of phospholipids together with antibiotics to disrupt preformed bacterial biofilms. The tests were conducted as follows. Biofilm formation was obtained by culturing (1) S. aureus in tryptic soy broth media supplemented with 5% glucose; and (2) P. aeruginosa in cation-adjusted Mueller Hinton Broth after incubation at 37 degrees C. for 24 hours in 96 well plates. The medium was then removed and replaced by treatment solutions of antibiotics, antibiotics+phospholipids, phospholipids alone, or control solutions. Phospholipid concentration used in the assays was 512 μg/ml although in some studies, was […]. After 24 hours at 37 degrees C., media was removed and fresh medium was added and the 96-well plates incubated at 37 degrees C. for 24 hours. Media were then removed and biofilm at the base of the wells was stained with crystal violet and quantitated.

MRSA biofilm formation = assay: Prevention of MRSA biofilm formation at 6 h, crystal violet (Example 11); conditions: in combination with gentamicin, phospholipid 512 μg/ml and 1024 μg/ml
Protocol: We performed in vitro tests of the capacity of phospholipids together with antibiotics to prevent formation of biofilms. Freshly grown MRSA was quantitated and placed in 96-well plates together with gentamicin alone, phospholipids plus gentamicin, or control solutions. Two different phospholipids (MAPCHO-10 and MAPCHO-12) were tested at three different phospholipid test concentrations (256 μg/ml, 512 μg/ml, and 1024 μg/ml). After 6 hours at 37 degrees C., the fluids were removed and the wells stained with crystal violet, and then the density of crystal violet in the wells was quantitated.

[5] = test system: preformed P. aeruginosa biofilms; assay: Disruption of preformed P. aeruginosa biofilms, crystal violet (Example 3); conditions: in combination with gentamicin, phospholipid 512, 1024 and 2048 μg/ml
Protocol: We performed in vitro studies of the capacity of phospholipids together with antibiotics to disrupt preformed bacterial biofilms. The tests were conducted as follows. Biofilm formation was obtained by culturing P. aeruginosa in cation-adjusted Mueller Hinton Broth after incubation at 37 degrees C. for 24 hours in 96 well plates. The medium was then removed and replaced by treatment solutions of gentamicin, phospholipids plus gentamicin, or control solutions. Either three or four different phospholipids (MAPCHO-10, MAPCHO-12, MAPCHO-14, and MAPCHO-16) were tested at three different phospholipid test concentrations (512 μg/ml, 1024 μg/ml, and 2048 μg/ml). After 24 hours at 37 degrees C., media was removed and fresh medium was added and the 96-well plates were incubated at 37 degrees C. for either 6 hours or 24 hours. Media were then removed and biofilm at the base of the wells was stained with crystal violet and quantitated.

P. aeruginosa = assay: Inhibition of growth of planktonic P. aeruginosa, OD600 (Example 4); conditions: in combination with gentamicin, compared to gentamicin alone
Protocol: We performed in vitro studies of the capacity of phospholipids together with antibiotics to inhibit the growth of planktonic bacteria. The tests were conducted as follows. Freshly grown P. aeruginosa was quantitated and placed in 96-well plates together with gentamicin alone, phospholipids plus gentamicin, or control solutions. Four different phospholipids (MAPCHO-10, MAPCHO-12, MAPCHO-14, and MAPCHO-16) were tested at two different phospholipid test concentrations (1024 μg/ml and 2048 μg/ml). After 24 hours at 37 degrees C., media was removed and fresh medium was added and the 96-well plates were incubated at 37 degrees C. for either 6 hours or 24 hours. Bacterial density was then analyzed and measured at OD600.

For `CCCCCCCCCCCCOP(=O)([O-])OCC[N+](C)(C)C` [MAPCHO-12, N-dodecylphosphocholine], the “effect on formation of biofilm by S. aureus (NCTC 8325)” value ([1]; 512 μg dose of phospholipid in combination with gentamicin, FIGS. 15, 16) was “positive effects; also recorded: able to prevent biofilm formation”, the “effect on formation of biofilm by S. aureus (NCTC 8325)” value ([1]; 512 μg dose of phospholipid in combination with tobramycin, FIGS. 15, 17) was “positive effects; also recorded: able to prevent biofilm formation” and the “prevention of biofilm formation by S. aureus (NCTC 8325)” value ([1]; agent alone (antibiotic alone at low concentrations, or phospholipid alone)) was “did not prevent biofilm formation”. For the same compound, the “inhibition of S. aureus growth” value (S. aureus) was “strong inhibition”, the “prevention of P. aeruginosa biofilm formation” value [2] was “effective at preventing” and the “prevention of biofilm formation by S. aureus” value ([3]; agent alone (gentamicin alone at low concentrations, or phospholipid alone)) was “did not prevent biofilm formation”. The “prevention of biofilm formation by S. aureus” value ([3]; phospholipid combined with gentamicin at low concentrations, FIG. 3) was “did prevent biofilm formation”, the “disruption of preformed biofilm of S. aureus” value ([4]; agent alone (gentamicin alone or phospholipid alone)) was “did not disrupt the biofilm” and the “disruption of preformed biofilm of S. aureus” value ([4]; phospholipid together with gentamicin, FIG. 2) was “disrupt preformed biofilm”. The “sterilization of S. aureus on disruption of the biofilm” value ([4]; phospholipid/gentamicin combination) was “sterilized”, the “prevention of MRSA biofilm formation compared to gentamicin alone” value (MRSA biofilm formation) was “tends to be more effective” and the “disruption of preformed P. aeruginosa biofilms” value ([5]; 6 h time point, FIGS. 4B-4D) was “disruption of P. aeruginosa biofilms occurs”. The “eradication of preformed P. aeruginosa biofilms” value ([5]; 24 h time point, FIGS. 5A-5C) was “nearly complete eradication”, the “inhibition of P. aeruginosa growth” value (P. aeruginosa; 6 h time point, phospholipid 1024 and 2048 μg/ml) was “moderate inhibition” and the “inhibition of P. aeruginosa growth” value (P. aeruginosa; 24 h time point, highest phospholipid dose 2048 μg/ml) was “significant inhibition”.
